According to US11192850B2, “N-aryl oxamic acids” (Purdue Research Foundation, priority 2020, dated 2021):

System: mPTPB transfected Raw264.7 cells
Assay: Blocking mPTPB-mediated signaling, Western blotting
Format: cell-based, mouse
Conditions: dose-dependent

Compound: O=C(O)C(=O)Nc1ccc(C#Cc2ccc(C(F)(F)F)cc2Cl)cc1 [Compound 4t, 2-((4-((2-chloro-4-(trifluoromethyl)phenyl)ethynyl)phenyl)amino)-2-oxoacetic Acid]
- Akt activity: reduced
- IFN-γ induced phosphorylation of ERK1/2 and p38: increased
